The record followed here is patent US20240279236A1, “COMPOUNDS AND METHODS OF TREATING TUBERCULOSIS” (Fimbrion Therapeutics, Inc., priority 2021, published 2024).

This test relates to WT Mtb Erdman strain. The test can be described thus: Microplate Alamar Blue Assay (MABA), Mtb growth inhibition. The class given is cell-based, Mycobacterium tuberculosis. Particulars: Middlebrook 7H9 media, 7 days at 37° C. in 5% CO2. Background: The colour change of resazurin is a common sign of viable cells or microbes.
Where [1] appears, read: Mycobacterium tuberculosis, ERDMAN, 168 h.

Usually IC50 stands for the concentration that gives 50% inhibition.

For `Cc1cc2c(NCCCc3ccccc3)nc(N3CCCCC3)nc2s1` [Example 517, 6-methyl-N-(3-phenylpropyl)-2-(piperidin-1-yl)thieno[2,3-d]pyrimidin-4-amine], under setting [1], half-maximal inhibition (IC50) was put at 3100 nM.

Take `COC1CN(c2nc(NCCCc3ccccc3)c3cc(C)sc3n2)C1` [Example 518, 2-(3-methoxyazetidin-1-yl)-6-methyl-N-(3-phenylpropyl)thieno[2,3-d]pyrimidin-4-amine]: the IC50 under setting [1] turned out to be 1900 nM.

For the molecule `Cc1cc2c(NCCCc3ccccc3)nc(N3CCSC3)nc2s1` [Example 519, 6-methyl-N-(3-phenylpropyl)-2-(thiazolidin-3-yl)thieno[2,3-d]pyrimidin-4-amine], under setting [1], half-maximal inhibition (IC50) was put at 900 nM.

Under setting [1], `CCN(CC)c1nc(NCCCc2ccccc2)c2cc(C)sc2n1` [Example 520, N2,N2-diethyl-6-methyl-N4-(3-phenylpropyl)thieno[2,3-d]pyrimidine-2,4-diamine] displayed a concentration for half-maximal inhibition (IC50) above 10000 nM.

The molecule `CNc1nc(NCCCc2ccccc2)c2cc(C)sc2n1` [Example 521, N2,6-dimethyl-N4-(3-phenylpropyl)thieno[2,3-d]pyrimidine-2,4-diamine] registered a half-maximal inhibitory concentration (IC50) under setting [1] of 250 nM.

Under setting [1], `Cc1cc2c(NCCCc3ccccc3)nc(NC3CC3)nc2s1` [Example 522, N2-cyclopropyl-6-methyl-N4-(3-phenylpropyl)thieno[2,3-d]pyrimidine-2,4-diamine] displayed a half-inhibitory concentration (IC50) of 4200 nM.

Take `Cc1cc2c(N[C@@H]3C[C@H]3c3ccc(F)c(F)c3)nc(N3CCC(F)(F)C3)nc2s1` [Example 523, N-((1R,2S)-2-(3,4-difluorophenyl)cyclopropyl)-2-(3,3-difluoropyrrolidin-1-yl)-6-methylthieno[2,3-d]pyrimidin-4-amine]: the IC50 under setting [1] stood at 4500 nM.

As to `Cc1cc2c(N[C@@H]3C[C@H]3c3ccc(F)c(F)c3)nc(N3CC(F)(F)C3)nc2s1` [Example 524, 2-(3,3-difluoroazetidin-1-yl)-N-((1R,2S)-2-(3,4-difluorophenyl)cyclopropyl)-6-methylthieno[2,3-d]pyrimidin-4-amine], the concentration for half-maximal inhibition (IC50) under setting [1] was above 10000 nM.

In turn, `CNc1nc(N[C@@H]2C[C@H]2c2ccc(F)c(F)c2)c2cc(C)sc2n1` [Example 525, N4-((1R,2S)-2-(3,4-difluorophenyl)cyclopropyl)-N2,6-dimethylthieno[2,3-d]pyrimidine-2,4-diamine] showed an IC50 under setting [1] of 4800 nM.

Regarding `Cc1cc2c(N[C@@H]3C[C@H]3c3ccc(F)c(F)c3)nc(NC3COC3)nc2s1` [Example 526, N4-((1R,2S)-2-(3,4-difluorophenyl)cyclopropyl)-6-methyl-N2-(oxetan-3-yl)thieno[2,3-d]pyrimidine-2,4-diamine], the IC50 under setting [1] is above 10000 nM.

Under setting [1], `Cc1cc2c(N[C@@H]3C[C@H]3c3ccc(F)c(F)c3)nc(N)nc2s1` [Example 527, N4-((1R,2S)-2-(3,4-difluorophenyl)cyclopropyl)-6-methylthieno[2,3-d]pyrimidine-2,4-diamine] registered a 50% inhibitory concentration (IC50) above 10000 nM.

Consider `Cc1cc2c(NCCCc3ccc(-c4ccc(OC(F)(F)F)cc4)cc3)nc(N3CCCC3)nc2s1` [Example 528, 6-methyl-2-(pyrrolidin-1-yl)-N-(3-(4′-(trifluoromethoxy)-[1,1′-biphenyl]-4-yl)propyl)thieno[2,3-d]pyrimidin-4-amine], for which the midpoint of inhibition under setting [1], the IC50, lay at 18 nM.

Turning to `Cc1cc2c(NCCCc3ccccc3)nc(NCc3ccco3)nc2s1` [Example 529, N2-(furan-2-ylmethyl)-6-methyl-N4-(3-phenylpropyl)thieno[2,3-d]pyrimidine-2,4-diamine], under setting [1], the IC50 is above 10000 nM.

In turn, `Cc1cc2c(NCCCc3ccc(-c4ccc(Cl)cc4)cc3)nc(N(C)C)nc2s1` [Example 531, N4-(3-(4′-chloro-[1,1′-biphenyl]-4-yl)propyl)-N2,N2,6-trimethylthieno[2,3-d]pyrimidine-2,4-diamine] came in with a half-inhibitory concentration (IC50) under setting [1] of 12 nM.

Under setting [1], `CNc1nc(NCCCc2ccc(-c3ccc(OC(F)(F)F)cc3)cc2)c2cc(C)sc2n1` [Example 532, N2,6-dimethyl-N4-(3-(4′-(trifluoromethoxy)-[1,1′-biphenyl]-4-yl)propyl)thieno[2,3-d]pyrimidine-2,4-diamine] yielded a 50% inhibitory concentration (IC50) of 49 nM.

The molecule `Cc1cc2c(NCCCc3ccc(-c4ccc(OC(F)(F)F)cc4)cc3)nc(N3CCC3)nc2s1` [Example 533, 2-(azetidin-1-yl)-6-methyl-N-(3-(4′-(trifluoromethoxy)-[1,1′-biphenyl]-4-yl)propyl)thieno[2,3-d]pyrimidin-4-amine] displayed an IC50 under setting [1] of 930 nM.

Under setting [1], `Cc1cc2c(NCCCc3ccc(-c4ccc(OC(F)(F)F)cc4)cc3)nc(N3CCC(F)(F)C3)nc2s1` [Example 534, 2-(3,3-difluoropyrrolidin-1-yl)-6-methyl-N-(3-(4′-(trifluoromethoxy)-[1,1′-biphenyl]-4-yl)propyl)thieno[2,3-d]pyrimidin-4-amine] returned an IC50 of 86 nM.

On to `Cc1cc2c(NCCCc3ccc(-c4ccc(OC(F)(F)F)cc4)cc3)nc(N(C)C)nc2s1` [Example 535, N2,N2,6-trimethyl-N4-(3-(4′-(trifluoromethoxy)-[1,1′-biphenyl]-4-yl)propyl)thieno[2,3-d]pyrimidine-2,4-diamine], for which the concentration for half-maximal inhibition (IC50) worked out at 4 nM.

`CN(C)c1nc(NCCCc2ccc(-c3ccc(OC(F)(F)F)cc3)cc2)c2ncsc2n1` [Example 536, N5,N5-dimethyl-N7-(3-(4′-(trifluoromethoxy)-[1,1′-biphenyl]-4-yl)propyl)thiazolo[5,4-d]pyrimidine-5,7-diamine] had an IC50 under setting [1] of 88 nM.

For the molecule `Cc1cc2c(NCCCc3ccc(-c4ccc(OC(F)(F)F)cc4)cc3)nc(N)nc2s1` [Example 537, 6-methyl-N4-(3-(4′-(trifluoromethoxy)-[1,1′-biphenyl]-4-yl)propyl)thieno[2,3-d]pyrimidine-2,4-diamine], half-maximal inhibition under setting [1] (IC50) required 130 nM.

The molecule `CCN(C)c1nc(NCCCc2ccc(-c3ccc(OC(F)(F)F)cc3)cc2)c2cc(C)sc2n1` [Example 538, N2-ethyl-N2,6-dimethyl-N4-(3-(4′-(trifluoromethoxy)-[1,1′-biphenyl]-4-yl)propyl)thieno[2,3-d]pyrimidine-2,4-diamine] showed an IC50 under setting [1] of 100 nM.

In turn, `CNc1nc(NCCCc2ccc(-c3ccc(N(C)C)cc3)cc2)c2cc(C)sc2n1` [Example 539, N4-(3-(4′-(dimethylamino)-[1,1′-biphenyl]-4-yl)propyl)-N2,6-dimethylthieno[2,3-d]pyrimidine-2,4-diamine] yielded a half-maximal inhibitory concentration (IC50) under setting [1] of 68 nM.

The molecule `CCOc1nc(NCCCc2ccccc2)c2ccsc2n1` [Example 542, 2-ethoxy-N-(3-phenylpropyl)thieno[2,3-d]pyrimidin-4-amine] showed an IC50 under setting [1] of 150 nM.

`CCOc1nc(NCCCc2ccccc2)c2cc(C)sc2n1` [Example 543, 2-ethoxy-6-methyl-N-(3-phenylpropyl)thieno[2,3-d]pyrimidin-4-amine] returned an IC50 under setting [1] of 130 nM.

The molecule `COc1nc(NCCCc2ccc(-c3ccc(OC(F)(F)F)cc3)cc2)c2cc(C)sc2n1` [Example 545, 2-methoxy-6-methyl-N-(3-(4′-(trifluoromethoxy)-[1,1′-biphenyl]-4-yl)propyl)thieno[2,3-d]pyrimidin-4-amine] displayed an IC50 under setting [1] of 10 nM.

Under setting [1], `CCOc1nc(NCCCc2ccc(-c3ccc(OC(F)(F)F)cc3)cc2)c2cc(C)sc2n1` [Example 546, 2-ethoxy-6-methyl-N-(3-(4′-(trifluoromethoxy)-[1,1′-biphenyl]-4-yl)propyl)thieno[2,3-d]pyrimidin-4-amine] displayed a concentration for half-maximal inhibition (IC50) of 15 nM.

For the molecule `COc1nc(NCCCc2ccc(-c3ccc(OC(F)(F)F)cc3)cc2)c2nc(C)sc2n1` [Example 547, 5-methoxy-2-methyl-N-(3-[4′-(trifluoromethoxy)-[1,1′-biphenyl]-4-yl]propyl)-[1,3]thiazolo[5,4-d]pyrimidin-7-amine], under setting [1], the midpoint of inhibition, the IC50, lay at 33 nM.

`Cc1cc2c(NCCCc3ccc(-c4ccc([N+](=O)[O-])cc4)cc3)nc(N3CCCC3)nc2s1` [Example 549, 6-methyl-N-(3-(4′-nitro-[1,1′-biphenyl]-4-yl)propyl)-2-(pyrrolidin-1-yl)thieno[2,3-d]pyrimidin-4-amine] registered an IC50 under setting [1] of 29 nM.

The molecule `Cc1cc2c(NCCCc3ccc(-c4ccc(F)nc4)cc3)nc(N(C)C)nc2s1` [Example 555, N4-(3-[4-(6-fluoropyridin-3-yl)phenyl]propyl)-N2,N2,6-trimethylthieno[2,3-d]pyrimidine-2,4-diamine] came in with a half-maximal inhibitory concentration (IC50) under setting [1] of 29 nM.

`Cc1cc2c(NCCCc3ccc(-c4ccc(F)cc4)cc3)nc(N(C)C)nc2s1` [Example 556, N4-(3-(4′-fluoro-[1,1′-biphenyl]-4-yl)propyl)-N2,N2,6-trimethylthieno[2,3-d]pyrimidine-2,4-diamine] had an IC50 under setting [1] below 4 nM.

As for `Cc1cc2c(NCCCc3ccc(-c4ccc(C(F)(F)F)cn4)cc3)nc(N(C)C)nc2s1` [Example 557, N2,N2,6-trimethyl-N4-(3-(4-[5-(trifluoromethyl)pyridin-2-yl]phenyl)propyl)thieno[2,3-d]pyrimidine-2,4-diamine], under setting [1], the IC50 was below 4 nM.

Regarding `Cc1cc2c(NCCCc3ccc(-c4ncc(C(F)(F)F)cn4)cc3)nc(N(C)C)nc2s1` [Example 558, N2,N2,6-trimethyl-N4-(3-(4-[5-(trifluoromethyl)pyrimidin-2-yl]phenyl)propyl)thieno[2,3-d]pyrimidine-2,4-diamine], under setting [1], the half-inhibitory concentration (IC50) is below 4 nM.

Molecule `Cc1cnc(-c2ccc(CCCNc3nc(N(C)C)nc4sc(C)cc34)cc2)cn1` [Example 559, N2,N2,6-trimethyl-N4-(3-[4-(5-methylpyrazin-2-yl)phenyl]propyl)thieno[2,3-d]pyrimidine-2,4-diamine] registered an IC50 under setting [1] of 11 nM.

Take `CCOc1nc(NCCCc2ccc(-c3cnc(C(F)(F)F)cn3)cc2)c2cc(C)sc2n1` [Example 560, 2-ethoxy-6-methyl-N-(3-(4-[5-(trifluoromethyl)pyrazin-2-yl]phenyl)propyl)thieno[2,3-d]pyrimidin-4-amine]: under setting [1], half-maximal inhibition (IC50) was put at 50 nM.

Under setting [1], `COc1nc(NCCCc2ccc(-c3cnc(F)cn3)cc2)c2cc(C)sc2n1` [Example 561, N-(3-[4-(5-fluoropyrazin-2-yl)phenyl]propyl)-2-methoxy-6-methylthieno[2,3-d]pyrimidin-4-amine] showed a half-inhibitory concentration (IC50) of 31 nM.

Regarding `CCc1nc(NCCCc2c[nH]nn2)c2cc(C)sc2n1` [Example 562, N-(3-(1H-1,2,3-triazol-4-yl)propyl)-2-ethyl-6-methylthieno[2,3-d]pyrimidin-4-amine], the half-maximal inhibitory concentration (IC50) under setting [1] was above 10000 nM.
